In publication PMC12165925 (Natural Products and Bioprospecting, 2025):

Legend:
Experiment in all cases: microbe, parasite or virus in culture
Format in all cases: cell-based
Details in all cases: hACE2-HEK293T cells
[1] = test system: SARS-CoV-2-S pseudovirus Delta variant
[2] = test system: SARS-CoV-2-S pseudovirus Omicron variant
[3] = test system: SARS-CoV-2-S pseudovirus Gamma variant

**Q.** Which IC50 [1] does the source give for C[C@@H]1O[C@@H](O[C@H]2[C@H](OC(=O)[C@]34CCC(C)(C)C[C@H]3C3=CC[C@@H]5[C@@]6(C)C[C@H](O)[C@H](O[C@@H]7O[C@H](CO)[C@@H](O)[C@H](O)[C@H]7O)C(CO)(CO)[C@@H]6CC[C@@]5(C)[C@]3(C)C[C@H]4O)OC[C@H](O)[C@@H]2O)[C@H](O)[C@H](O)[C@H]1O[C@@H]1OC[C@@H](O)[C@H](O)[C@H]1O [DPD, Deapio platycodin D] here?
**A.** 830 ± 70 nM

**Q.** And the IC50 [2]?
**A.** 1030 ± 20 nM

**Q.** And the IC50 [3]?
**A.** 1000 ± 40 nM

**Q.** For Oc1cc(O)c2cc(O)c(-c3cc(O)c(O)c(O)c3)[o+]c2c1 [Delphinidin], which IC50 [1] is on record?
**A.** > 200000 nM

**Q.** What about the IC50 [2] of the same compound?
**A.** 10800 ± 680 nM

**Q.** And the IC50 [3]?
**A.** > 200000 nM
